Assay results from paper doi:10.1101/2025.05.30.657074, “A covalent recognition strategy enables conspecific mate identification” (bioRxiv, 2025).
pEC50: −log10 of the molar value.

Tests used:
[1] = molecular target: OR3_C215A (Bombyx mori, UniProt Q5FBE0, C215A); test: GCaMP6 calcium flux assay, BmOR3/Orco mutant C215A; assay type: cell-based
From the text: (§1) The first insect pheromone system characterized at the molecular level is that of Bombyx mori, a moth long known to navigate towards its mate guided solely by pheromone cues with impressive navigation accuracy. Two PR/Orco complexes, BmOR1/BmOrco and BmOR3/BmOrco, have been linked to the behavioral responses to pheromones in B. mori (Figure 1A). The conspecific pheromone, bombykol, is detected through BmOR1/Orco and leads to sexual attraction. The heterospecific pheromone, bombykal, is sensed through BmOR3/Orco, and leads to suppression of mating behavior. We first characterized the extent to which both PR/Orco complexes are selective towards their cognate ligands. We used a previously established calcium flux functional assay where we co-transfected HEK293 cells with either BmOR1 or BmOR3, along with the coreceptor, BmOrco (here on referred to as Orco), and the fluorescent calcium reporter, GCaMP6 (Figure 1C). In this assay, ligand-activation of the heteromeric ion channel complexes by addition of either bombykol or bombykal leads to calcium influx, read out as GCaMP6 fluorescence changes that can be monitored in real-time and dose-dependent manner using a fluorescence plate reader. […]
(§2) HEK293T cells were maintained at 37°C with 5% carbon dioxide and grown in high glucose DMEM enhanced with 10% FBS and 1% GlutaMAX (Gibco). […] Cells were kept at 37°C for 18-20 hours before being used for fluorescence plate reading. […]
(§3) On the day of the GCaMP6 assay, Bravo (Agilent), a versatile liquid handler was used to prepare both the odorant plate and the assay plate (transfected cell plate) prior to the fluorescence readout using the FDSS/µcell kinetic plate Imager (Hamamatsu, C13299).
(§4) For the odorant plate, the DMSO dissolved stock solutions were diluted in 19.8 µL of Reading buffer (20 mM HEPES/NaOH (pH 7.4), 1× HBSS (Gibco), 3 mM Na2CO3, 1 mM MgSO4, and 5 mM CaCl2) to give a final concentration ranging from 3.16 nM to 1 mM with 1% DMSO. […]
(§5) The kinetics of the fluorescence change upon odorant addition were measured using the FDSS/µcell kinetic plate Imager (Hamamatsu, C13299). […]

[2] = molecular target: OR3_V348A (Bombyx mori, UniProt Q5FBE0, V348A); test: GCaMP6 calcium flux assay, BmOR3/Orco mutant V348A; assay type: cell-based
Chain of OR3_V348A (Q7YT34 entry or part of it, stated change not applied): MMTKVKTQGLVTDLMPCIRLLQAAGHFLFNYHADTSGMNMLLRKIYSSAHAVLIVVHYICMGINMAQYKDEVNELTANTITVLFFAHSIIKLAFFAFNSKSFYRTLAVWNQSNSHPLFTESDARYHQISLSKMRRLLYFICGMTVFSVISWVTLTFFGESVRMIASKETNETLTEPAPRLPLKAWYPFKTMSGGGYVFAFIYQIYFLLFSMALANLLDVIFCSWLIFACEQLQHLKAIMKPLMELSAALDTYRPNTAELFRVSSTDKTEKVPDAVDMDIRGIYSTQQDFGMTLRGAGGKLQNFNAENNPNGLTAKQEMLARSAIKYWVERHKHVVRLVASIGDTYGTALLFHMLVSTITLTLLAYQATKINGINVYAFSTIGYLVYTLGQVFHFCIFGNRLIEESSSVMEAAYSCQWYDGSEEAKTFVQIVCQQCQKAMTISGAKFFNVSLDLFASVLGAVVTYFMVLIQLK
Chain of OR3_V348A (Q5FBE0 entry or part of it V348A): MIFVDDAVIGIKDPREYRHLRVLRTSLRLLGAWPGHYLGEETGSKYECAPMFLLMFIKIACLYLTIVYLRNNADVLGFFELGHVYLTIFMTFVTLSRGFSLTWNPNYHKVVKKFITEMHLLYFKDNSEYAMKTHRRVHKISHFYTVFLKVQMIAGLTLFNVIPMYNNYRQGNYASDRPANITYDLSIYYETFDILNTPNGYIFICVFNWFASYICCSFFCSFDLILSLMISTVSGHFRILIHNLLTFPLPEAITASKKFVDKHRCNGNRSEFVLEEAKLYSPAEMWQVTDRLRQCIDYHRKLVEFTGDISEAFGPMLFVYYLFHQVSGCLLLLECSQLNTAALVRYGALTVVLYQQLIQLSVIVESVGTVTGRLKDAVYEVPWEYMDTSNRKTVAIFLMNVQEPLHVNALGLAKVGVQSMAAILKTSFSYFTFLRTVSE
From the text: as §1, §2, §3, §4, §5

[3] = molecular target: OR3_K58A (Bombyx mori, UniProt Q5FBE0, K58A); test: GCaMP6 calcium flux assay, BmOR3/Orco mutant K58A; assay type: cell-based
Chain of OR3_K58A (Q5FBE0 entry or part of it K58A): as the sequence (Q5FBE0 entry or part of it V348A) above, with K58A, A348V counted along it
Chain of OR3_K58A (Q7YT34 entry or part of it, stated change not applied, further chain): as the sequence (Q7YT34 entry or part of it, stated change not applied) above
From the text: (§6) The first insect pheromone system characterized at the molecular level is that of Bombyx mori, a moth long known to navigate towards its mate guided solely by pheromone cues with impressive navigation accuracy. Two PR/Orco complexes, BmOR1/BmOrco and BmOR3/BmOrco, have been linked to the behavioral responses to pheromones in B. mori (Figure 1A). The conspecific pheromone, bombykol, is detected through BmOR1/Orco and leads to sexual attraction. The heterospecific pheromone, bombykal, is sensed through BmOR3/Orco, and leads to suppression of mating behavior. We first characterized the extent to which both PR/Orco complexes are selective towards their cognate ligands. We used a previously established calcium flux functional assay where we co-transfected HEK293 cells with either BmOR1 or BmOR3, along with the coreceptor, BmOrco (here on referred to as Orco), and the fluorescent calcium reporter, GCaMP6 (Figure 1C). In this assay, ligand-activation of the heteromeric ion channel complexes by addition of either bombykol or bombykal leads to calcium influx, read out as GCaMP6 fluorescence changes that can be monitored in real-time and dose-dependent manner using a fluorescence plate reader. […] But we also found both PR/Orco complexes to be somewhat promiscuous: both complexes are activated by their non-cognate pheromones (bombykal for BmOR1/Orco and bombykol for BmOR3/Orco) with a response that is ~10 fold smaller than their cognate pheromones. […] Instead, two complexes with reciprocal specificities enable an unequivocal response to bombykal and bombykol across all concentrations, ensuring the behavioral accuracy needed for mate selection.
(§7) The assay was performed similarly to method descriptions in previous studies.
(§8) All DNA constructs used in this assay were cloned into a modified pME18 vector that contains a SV40 promotor.
(§9) Each transfection condition (per well) contained a total of 300 ng of plasmids in 1:1:1 ratio of the GCaMP6, Orco, and the corresponding OR plasmid that was diluted in 4.8 uL of OptiMEM (Gibco) along with 0.1 uL of P3000. The mixture was incubated for 5 minutes and then further incubated for 20 minutes after being mixed with Lipofectamine 3000 (Invitrogen) diluted in OptiMEM. This mixture was scaled accordingly to batch transfect 50-100 wells per construct per plate.
(§10) HEK293T cells were maintained at 37°C with 5% carbon dioxide and grown in high glucose DMEM enhanced with 10% FBS and 1% GlutaMAX (Gibco). Cells were detached with TrypLE Express Enzyme and resuspended in FluoroBrite DMEM (Gibco) with 10% FBS and 1% GlutaMAX (Gibco) to a concentration of 5 × 10^5 cells/ml. Cells were combined with each transfection condition and added to 2x16 wells of a 384-well plate (Grenier CELLSTAR). Cells were kept at 37°C for 18-20 hours before being used for fluorescence plate reading.
(§11) Odorant plates were prepared using D300e (Hewlett Packard), a digital, non-contact dispenser. Briefly, stock solutions of bombykol and bombykal were prepared in DMSO and plated onto 384-plates (Greiner, Catalog #784201) in a titrating volume to obtain a concentration series ranging between 316 nM and 100 mM with a final volume of 0.2 µL.
(§12) The odorant plates were kept at −20 °C until usage.
as §3
as §4, with “DMSO. For the cell plate, the FluoroBrite DMEM (Gibco) was exchanged out with the” for “DMSO.”
as §5

[4] = molecular target: OR3_L349A (Bombyx mori, UniProt Q5FBE0, L349A); test: GCaMP6 calcium flux assay, BmOR3/Orco mutant L349A; assay type: cell-based
Chain of OR3_L349A (Q7YT34 entry or part of it, stated change not applied): as above
Chain of OR3_L349A (Q5FBE0 entry or part of it L349A): as the sequence (Q5FBE0 entry or part of it V348A) above, with A348V, L349A counted along it
From the text: as §1, §2, §3, §4, §5

[5] = molecular target: OR3_F159A (Bombyx mori, UniProt Q5FBE0, F159A); test: GCaMP6 calcium flux assay, BmOR3/Orco mutant F159A; assay type: cell-based
Chain of OR3_F159A (Q5FBE0 entry or part of it F159A): as the sequence (Q5FBE0 entry or part of it V348A) above, with F159A, A348V counted along it
Chain of OR3_F159A (Q7YT34 entry or part of it, stated change not applied, further chain): as the sequence (Q7YT34 entry or part of it, stated change not applied) above
From the text: as §1, §2, §3, §4, §5

[6] = molecular target: BmOR1/Orco (Bombyx mori, UniProt Q5WA61); test: GCaMP6 calcium flux assay, wild-type BmOR1/Orco; assay type: cell-based
Chain of BmOR1/Orco (Q7YT34 entry or part of it): as the sequence (Q7YT34 entry or part of it, stated change not applied) above
Chain of BmOR1/Orco (Q5WA61 entry or part of it): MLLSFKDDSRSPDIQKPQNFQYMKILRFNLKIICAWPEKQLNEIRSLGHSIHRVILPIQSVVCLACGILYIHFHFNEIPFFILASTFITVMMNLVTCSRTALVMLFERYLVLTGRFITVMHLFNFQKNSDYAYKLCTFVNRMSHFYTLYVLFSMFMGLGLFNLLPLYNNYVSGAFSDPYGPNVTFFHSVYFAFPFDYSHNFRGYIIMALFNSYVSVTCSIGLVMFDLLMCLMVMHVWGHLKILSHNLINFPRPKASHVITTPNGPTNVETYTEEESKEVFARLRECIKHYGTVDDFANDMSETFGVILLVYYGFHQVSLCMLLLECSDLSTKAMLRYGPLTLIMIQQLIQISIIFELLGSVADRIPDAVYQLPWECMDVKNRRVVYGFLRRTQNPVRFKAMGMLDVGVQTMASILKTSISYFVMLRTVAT
From the text: as §6, §7, §8, §9, §10, §11, §12, §3
as §4, with “DMSO. For the cell plate, the FluoroBrite DMEM (Gibco) was exchanged out with the” for “DMSO.”
as §5

[7] = molecular target: OR3_K58Q (Bombyx mori, UniProt Q5FBE0, K58Q); test: GCaMP6 calcium flux assay, BmOR3/Orco mutant K58Q; assay type: cell-based
Chain of OR3_K58Q (Q5FBE0 entry or part of it K58Q): as the sequence (Q5FBE0 entry or part of it V348A) above, with K58Q, A348V counted along it
Chain of OR3_K58Q (Q7YT34 entry or part of it, stated change not applied, further chain): as the sequence (Q7YT34 entry or part of it, stated change not applied) above
From the text: as §6, §7, §8, §9, §10, §11, §12, §3
as §4, with “DMSO. For the cell plate, the FluoroBrite DMEM (Gibco) was exchanged out with the” for “DMSO.”
as §5

[8] = molecular target: OR3_L353A (Bombyx mori, UniProt Q5FBE0, L353A); test: GCaMP6 calcium flux assay, BmOR3/Orco mutant L353A; assay type: cell-based
Chain of OR3_L353A (Q5FBE0 entry or part of it L353A): as the sequence (Q5FBE0 entry or part of it V348A) above, with A348V, L353A counted along it
Chain of OR3_L353A (Q7YT34 entry or part of it, stated change not applied, further chain): as the sequence (Q7YT34 entry or part of it, stated change not applied) above
From the text: as §1, §2, §3, §4, §5

[9] = molecular target: OR3_C215S (Bombyx mori, UniProt Q5FBE0, C215S); test: GCaMP6 calcium flux assay, BmOR3/Orco mutant C215S; assay type: cell-based
Chain of OR3_C215S (Q7YT34 entry or part of it, stated change not applied): as above
Chain of OR3_C215S (Q5FBE0 entry or part of it C215S): as the sequence (Q5FBE0 entry or part of it V348A) above, with C215S, A348V counted along it
From the text: as §1, §2, §3, §4, §5

[10] = molecular target: OR3_V352A (Bombyx mori, UniProt Q5FBE0, V352A); test: GCaMP6 calcium flux assay, BmOR3/Orco mutant V352A; assay type: cell-based
Chain of OR3_V352A (Q5FBE0 entry or part of it V352A): as the sequence (Q5FBE0 entry or part of it V348A) above, with A348V, V352A counted along it
Chain of OR3_V352A (Q7YT34 entry or part of it, stated change not applied, further chain): as the sequence (Q7YT34 entry or part of it, stated change not applied) above
From the text: as §1, §2, §3, §4, §5

[11] = molecular target: OR3_K58S (Bombyx mori, UniProt Q5FBE0, K58S); test: GCaMP6 calcium flux assay, BmOR3/Orco mutant K58S; assay type: cell-based
Chain of OR3_K58S (Q5FBE0 entry or part of it K58S): as the sequence (Q5FBE0 entry or part of it V348A) above, with K58S, A348V counted along it
Chain of OR3_K58S (Q7YT34 entry or part of it, stated change not applied, further chain): as the sequence (Q7YT34 entry or part of it, stated change not applied) above
From the text: as §6, §7, §8, §9, §10, §11, §12, §3
as §4, with “DMSO. For the cell plate, the FluoroBrite DMEM (Gibco) was exchanged out with the” for “DMSO.”
as §5

[12] = test system: B. mori male moths; parameters: method as in PMID 24744736, PMID 22836825; details: conspecific male moths; cited from earlier work
[13] = molecular target: BmOR3/Orco (Bombyx mori, UniProt Q5FBE0); test: GCaMP6 calcium flux assay, wild-type BmOR3/Orco; assay type: cell-based
Chain of BmOR3/Orco (Q5FBE0 entry or part of it): as the sequence (Q5FBE0 entry or part of it V348A) above, with A348V counted along it
Chain of BmOR3/Orco (Q7YT34 entry or part of it, further chain): as the sequence (Q7YT34 entry or part of it, stated change not applied) above
From the text: as §6, §7, §8, §9, §10, §11, §12, §3
as §4, with “DMSO. For the cell plate, the FluoroBrite DMEM (Gibco) was exchanged out with the” for “DMSO.”
as §5

Chain of OR3_C215A (Q5FBE0 entry or part of it C215A): as the sequence (Q5FBE0 entry or part of it V348A) above, with C215A, A348V counted along it
Chain of OR3_C215A (Q7YT34 entry or part of it, stated change not applied, further chain): as the sequence (Q7YT34 entry or part of it, stated change not applied) above

SMILES: CCC/C=C\C=C\CCCCCCCCC=O [Bombykal, bombykal]
- pEC50 [1]: 5.50
- Hill Coefficient (n± SE) ([1]; OR3_C215A): 1.4 ± 0.3
- Max (ΔF/F ± SE) ([1]; OR3_C215A): 0.82 ± 0.03 ΔF/F
- pEC50 [2]: 6.32
- Hill Coefficient (n± SE) ([2]; OR3_V348A): 1.25 ± 0.08
- Max (ΔF/F ± SE) ([2]; OR3_V348A): 1.13 ± 0.04 ΔF/F
- pEC50 [3]: 4.80
- Hill Coefficient (n± SE) ([3]; OR3_K58A): 0.8 ± 0.2
- Max (ΔF/F ± SE) ([3]; OR3_K58A): 0.18± 0.03 ΔF/F
- pEC50 [4]: 5.47
- Hill Coefficient (n± SE) ([4]; OR3_L349A): 5 ± 3
- Max (ΔF/F ± SE) ([4]; OR3_L349A): 0.48 ± 0.04 ΔF/F
- pEC50 [5]: 4.90
- Hill Coefficient (n± SE) ([5]; OR3_F159A): 4 ± 2
- Max (ΔF/F ± SE) ([5]; OR3_F159A): 0.16 ± 0.02 ΔF/F
- pEC50 ([6]; EC50, HEK293 cells co-transfected with BmOR1, BmOrco, GCaMP6): 5.52
- pEC50 ([6]; Mean (-log EC50 ± SE), wild-type BmOR1/Orco): 5.52
- response to non-cognate pheromone, fold smaller than cognate pheromone ([6]; bombykal vs cognate bombykol at BmOR1/Orco): ~ 10 fold
- Hill Coefficient (n± SE) ([6]; wild-type BmOR1/Orco): 1.41 ± 0.09
- Max (ΔF/F ± SE) ([6]; wild-type BmOR1/Orco, ΔF/F at highest ligand concentration): 1.02 ± 0.05 ΔF/F
- pEC50 [7]: 4.99
- Hill Coefficient (n± SE) ([7]; OR3_K58Q): 1.3 ± 0.1
- Max (ΔF/F ± SE) ([7]; OR3_K58Q): 0.68 ± 0.02 ΔF/F
- pEC50 [8]: 6.30
- Hill Coefficient (n± SE) ([8]; OR3_L353A): 1.3 ± 0.2
- Max (ΔF/F ± SE) ([8]; OR3_L353A): 0.91 ± 0.04 ΔF/F
- pEC50 [9]: 5.90
- Hill Coefficient (n± SE) ([9]; OR3_C215S): 1.09 ± 0.07
- Max (ΔF/F ± SE) ([9]; OR3_C215S): 0.82 ± 0.05 ΔF/F
- pEC50 [10]: 6.27
- Hill Coefficient (n± SE) ([10]; OR3_V352A): 1.9 ± 0.2
- Max (ΔF/F ± SE) ([10]; OR3_V352A): 0.63 ± 0.03 ΔF/F
- pEC50 [11]: 4.86
- Hill Coefficient (n± SE) ([11]; OR3_K58S): 1.2 ± 0.2
- Max (ΔF/F ± SE) ([11]; OR3_K58S): 0.36 ± 0.03 ΔF/F
- behavioral response [12]: suppresses mating behavior
- pEC50 ([13]; EC50, HEK293 cells co-transfected with BmOR3, BmOrco, GCaMP6): 6.80
- pEC50 ([13]; Mean (-log EC50 ± SE), wild-type BmOR3/Orco): 6.79
- Hill Coefficient (n± SE) ([13]; wild-type BmOR3/Orco): 1.12 ± 0.08
- Max (ΔF/F ± SE) ([13]; wild-type BmOR3/Orco, ΔF/F at highest ligand concentration): 0.98 ± 0.05 ΔF/F
